Values of other authors, collected in patent US20070243268A1, “Compositions for regulating intestinal disorders and methods of use thereof” (priority 2005, published 2007).

System: prostate cancer
Settings: 970 men, 200 mcg selenium daily (as selenium-enriched yeast) for 4.5 years

[Se] [selenium]
reduction in the incidence of prostate cancer: 63%
